According to EP0008888A1, “Beta-lactam antibacterial compounds, their preparation and pharmaceutical compositions containing them” (BEECHAM GROUP PLC, priority 1978, dated 1980):
Converted amounts (≈) assume the structure as drawn. Where two headings read alike, the source gives them in different places.

Tests used:
Assay in all cases: MIC in a standard test
Format in all cases: cell-based
Citrobacter freundii E8 = tested on: Citrobacter freundii E8
Enterobacter cloacoae N1 = tested on: Enterobacter cloacoae N1
Escherichia coli 0111 = tested on: Escherichia coli 0111
Escherichia coli JT39 = tested on: Escherichia coli JT39
Klebsiella aerogenes A = tested on: Klebsiella aerogenes A
Proteus mirabilis C977 = tested on: Proteus mirabilis C977
Proteus morganii I580 = conditions: Morganella morganii
Proteus rettgeri WM16 = conditions: Providencia rettgeri
Proteus vulgaris WO91 = tested on: Proteus vulgaris WO91
Pseudomonas aeruginosa A = tested on: Pseudomonas aeruginosa A
[1] = tested on: Salmonella typhimurium CT10; conditions: Salmonella enterica
Serratia marcescens US20 = tested on: Serratia marcescens US20
Shigella sonnei MB 11967 = conditions: MB11967
Bacillus subtilis A = tested on: Bacillus subtilis A
[2] = tested on: Staphylococcus aureus Oxford
[3] = tested on: Staphylococcus aureus Russell
[4] = tested on: Staphylococcus aureus 1517
Streptococcus faecalis I = conditions: Enterococcus faecalis
[5] = tested on: Streptococcus pneumoniae CN33
[6] = tested on: Streptococcus pyogenes CN10
[7] = standard test, Escherichia coli JT39, read-out: MIC

Structure (SMILES) | MIC (Citrobacter freundii E8) | MIC (Enterobacter cloacoae N1) | MIC (Escherichia coli 0111) | MIC (Klebsiella aerogenes A) | MIC (Proteus mirabilis C977) | MIC (Proteus morganii I580) | MIC (Proteus rettgeri WM16) | MIC (Proteus vulgaris WO91) | MIC (Pseudomonas aeruginosa A) | MIC [1] | MIC (Serratia marcescens US20) | MIC (Shigella sonnei MB 11967) | MIC (Bacillus subtilis A) | MIC [2] | MIC [3] | MIC [4] | MIC (Streptococcus faecalis I) | MIC [5] | MIC [6] | MIC (Escherichia coli JT39; [7]) | other results
CCSC1=C(C(=O)[O-])N2C(=O)CC2C1.[Na+] (stereo not shown) [Example 7, Sodium 3-ethylthio-7-oxo-1-azabicyclo(3,2,0)hept-2-ene-2-carboxylate] | 2.5 µg/mL | 2.5 µg/mL | 2.5 µg/mL | 1 µg/mL | 10 µg/mL | 10 µg/mL | 50 µg/mL | 50 µg/mL | > 100 µg/mL | 2.5 µg/mL | 10 µg/mL | 5.2 µg/mL | 1 µg/mL | 5 µg/mL | 10 µg/mL | > 100 µg/mL | 100 µg/mL | 1 µg/mL | 1 µg/mL | – | MIC (Escherichia coli JT39; Escherichia coli, JT39): 50 µg/mL
CCSC1=C(C(=O)OCc2ccc([N+](=O)[O-])cc2)N2C(=O)[C@@H](CCN=[N+]=[N-])[C@H]2C1 (relative stereo) [Example 82, p - Nitrobenzyl - 6β-(2 - azidoethyl) - 3 - ethylthio - 7 - oxo - 1 - azabicyclo [3.2.O] hept-2 - ene - 2 - carboxylate] | 3.1 µg/mL (≈ 7.43 µM) | 12.5 µg/mL (≈ 29.9 µM) | 1.6 µg/mL (≈ 3.83 µM) | 1.6 µg/mL (≈ 3.83 µM) | 12.5 µg/mL (≈ 29.9 µM) | 12.5 µg/mL (≈ 29.9 µM) | 6.2 µg/mL (≈ 14.9 µM) | 12.5 µg/mL (≈ 29.9 µM) | > 50 µg/mL | 3.1 µg/mL (≈ 7.43 µM) | 12.5 µg/mL (≈ 29.9 µM) | 3.1 µg/mL (≈ 7.43 µM) | 1.6 µg/mL (≈ 3.83 µM) | 0.8 µg/mL (≈ 1.92 µM) | 1.6 µg/mL (≈ 3.83 µM) | 50 µg/mL (≈ 120 µM) | 50 µg/mL (≈ 120 µM) | – | – | 12.5 µg/mL (≈ 29.9 µM) | –
COC(=O)CCSC1=C(C(=O)O)N2C(=O)C[C@H]2C1 [Example 23, Potassium 3-(2-methoxycarbonylethvlthio)-7-oxo-l-azabicyclo[3.2.0]hept-2-ene-2-carboxylate] | 1.6 µg/mL | – | 1.6 µg/mL | 1.6 µg/mL | 12.5 µg/mL | 25 µg/mL | 25 µg/mL | 25 µg/mL | > 50 µg/mL | 3.1 µg/mL | 25 µg/mL | – | 3.1 µg/mL | 12.5 µg/mL | 50 µg/mL | > 50 µg/mL | > 50 µg/mL | ≤ 0.2 µg/mL | 0.8 µg/mL | 6.2 µg/mL | –
CSC1=C(C(=O)[O-])N2C(=O)CC2C1.[Na+] (stereo not shown) [Example 42, Sodium 3-methylthio-7-oxo-1-azabicyclo[3.2.0]hept-2-ene-2-carboxylate] | 1.6 µg/mL | 3.1 µg/mL | 3.1 µg/mL | 3.1 µg/mL | 25 µg/mL | 25 µg/mL | 25 µg/mL | 25 µg/mL | > 50 µg/mL | 3.1 µg/mL | 3.1 µg/mL | 3.1 µg/mL | 1.6 µg/mL | 6.2 µg/mL | 12.5 µg/mL | > 50 µg/mL | > 50 µg/mL | ≤ 0.2 µg/mL | 0.8 µg/mL | – | MIC (Escherichia coli JT39; Escherichia coli, JT39): 6.2 µg/mL
CCSC1=C(C(=O)OC2OC(=O)c3ccccc32)N2C(=O)C[C@H]2C1 (stereo partly shown) [Example 9, Phthalidyl 3-ethylthio-7-oxo-1-azabicyclo[3.2.0]hept-2-ene-2-carboxylate] | 12.5 µg/mL (≈ 36.2 µM) | – | 12.5 µg/mL (≈ 36.2 µM) | 12.5 µg/mL (≈ 36.2 µM) | 25 µg/mL (≈ 72.4 µM) | 25 µg/mL (≈ 72.4 µM) | > 50 µg/mL | > 50 µg/mL | > 50 µg/mL | 12.5 µg/mL (≈ 36.2 µM) | 50 µg/mL (≈ 145 µM) | 12.5 µg/mL (≈ 36.2 µM) | 25 µg/mL (≈ 72.4 µM) | > 50 µg/mL | > 50 µg/mL | > 50 µg/mL | > 50 µg/mL | – | 12.5 µg/mL (≈ 36.2 µM) | > 50 µg/mL | –
COCCSC1=C(C(=O)O)N2C(=O)C[C@H]2C1 [Example 32, Sodium 3-(2-methxyethylthio)-7-oxo-1-azabicyclo[3.2.0] hept-2-ene-2-carboxylate] | 3.1 µg/mL | 6.2 µg/mL | 3.1 µg/mL | 1.6 µg/mL | 6.2 µg/mL | 50 µg/mL | 50 µg/mL | 50 µg/mL | > 100 µg/mL | 3.1 µg/mL | 12.5 µg/mL | 3.1 µg/mL | 1.6 µg/mL | 6.2 µg/mL | 25 µg/mL | > 50 µg/mL | 50 µg/mL | ≤ 0.2 µg/mL | 1.6 µg/mL | 6.2 µg/mL | –
CCSC1=C(C(=O)OC2OC(=O)c3ccccc32)N2C(=O)[C@@H](CC)[C@H]2C1 (stereo partly drawn) [Example 75, Phthalidyl 6β-ethyl - 3-ethylthio - 7 - oxo - 1 - azabicyclo [3.2.0] hept - 2 - ene - 2-carboxylate] | 25 µg/mL (≈ 66.9 µM) | 12.5 µg/mL (≈ 33.5 µM) | 25 µg/mL (≈ 66.9 µM) | 25 µg/mL (≈ 66.9 µM) | 25 µg/mL (≈ 66.9 µM) | 25 µg/mL (≈ 66.9 µM) | 25 µg/mL (≈ 66.9 µM) | 50 µg/mL (≈ 134 µM) | > 50 µg/mL | 12.5 µg/mL (≈ 33.5 µM) | 50 µg/mL (≈ 134 µM) | 12.5 µg/mL (≈ 33.5 µM) | 5 µg/mL (≈ 13.4 µM) | 5 µg/mL (≈ 13.4 µM) | 12.5 µg/mL (≈ 33.5 µM) | > 50 µg/mL | > 50 µg/mL | 1.2 µg/mL (≈ 3.21 µM) | 5 µg/mL (≈ 13.4 µM) | 50 µg/mL (≈ 134 µM) | –
CCSC1=C(C(=O)O)N2C(=O)[C@@H](C)[C@H]2C1 (relative stereo) [Example 79, Sodium 3 - ethylthio-6β - methyl - 7 - oxo - 1 - azabicyclo [3.2 .O] hept - 2 - ene - 2 - carboxylate] | 6.2 µg/mL | 6.2 µg/mL | 6.2 µg/mL | 3.1 µg/mL | 6.2 µg/mL | 25 µg/mL | 25 µg/mL | 25 µg/mL | > 50 µg/mL | 3.1 µg/mL | 12.5 µg/mL | 3.1 µg/mL | 6.2 µg/mL | 3.1 µg/mL | 6.2 µg/mL | > 50 µg/mL | > 50 µg/mL | 0.8 µg/mL | 3.1 µg/mL | 6.2 µg/mL | –
NCCSC1=C(C(=O)O)N2C(=O)CC2C1 (stereo not shown) [Example 15, 3-Aminoethylthio-7-oxo-1-azabicyclo[3.2.0]hept-2-ene-2-carboxylic acid] | 3.1 µg/mL (≈ 13.6 µM) | 3.1 µg/mL (≈ 13.6 µM) | 3.1 µg/mL (≈ 13.6 µM) | 1.6 µg/mL (≈ 7.01 µM) | 25 µg/mL (≈ 110 µM) | 25 µg/mL (≈ 110 µM) | 25 µg/mL (≈ 110 µM) | 25 µg/mL (≈ 110 µM) | 6.2 µg/mL (≈ 27.2 µM) | 3.1 µg/mL (≈ 13.6 µM) | 6.2 µg/mL (≈ 27.2 µM) | 3.1 µg/mL (≈ 13.6 µM) | 0.8 µg/mL (≈ 3.5 µM) | 0.8 µg/mL (≈ 3.5 µM) | > 3.1 µg/mL | – | 25 µg/mL (≈ 110 µM) | 0.2 µg/mL (≈ 0.876 µM) | 0.4 µg/mL (≈ 1.75 µM) | 1.6 µg/mL (≈ 7.01 µM) | –
O=C(O)C1=C(SCc2ccccc2)C[C@@H]2CC(=O)N12 [Example 47, Sodium 3-benzylthio-7-oxo-1-azabicyclo[3.2.0]hept-2-ene-2-carboxvlate] | 25 µg/mL | 12.5 µg/mL | 6.2 µg/mL | 6.2 µg/mL | 50 µg/mL | 50 µg/mL | > 50 µg/mL | > 50 µg/mL | > 50 µg/mL | 6.2 µg/mL | 50 µg/mL | 6.2 µg/mL | 1.6 µg/mL | 6.2 µg/mL | 6.2 µg/mL | > 50 µg/mL | > 50 µg/mL | ≤ 0.2 µg/mL | 1.6 µg/mL | 50 µg/mL | –
